Where “and” joins values, the source holds several entries; their conditions need not be identical. Equal entries are not always repeated. Inconclusive results and toxic doses are left out.
System: L1210 leukemia ip in BDF1 mice, survival T/C
Assay: NCI In Vivo Anticancer Drug Screen. Data for tumor model L1210 Leukemia (intraperitoneal) in B6D2F1 (BDF1) mice
Conditions: endpoint: mean survival time, higher = longer survival
In short: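 Mice bearing the transplanted tumor received compound or vehicle. Survival of the treated group was divided by that of the vehicle-treated control group to give the ratio.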

[1] = dose: 100.0 mg/kg/injection, schedule: Q01DX001 (ip), vehicle: saline
[2] = dose: 200.0 mg/kg/injection, schedule: Q01DX001 (ip), vehicle: saline
[3] = dose: 400.0 mg/kg/injection, schedule: Q01DX001 (ip), vehicle: saline

Question: What does the source list for `O=CC(NC(=O)C(O)C(O)C(O)C(O)CO)C(O)C(O)C(O)CO` (stereo not drawn)?
Answer: T/C (dose: 100.0 mg/kg/injection, schedule: Q04DX003 (ip), vehicle: saline): 102 % of control; T/C (dose: 200.0 mg/kg/injection, schedule: Q04DX003 (ip), vehicle: saline): 97 % of control; T/C (dose: 400.0 mg/kg/injection, schedule: Q04DX003 (ip), vehicle: saline): 91 % of control

Question: For `O=C(O)C(CSC(c1ccccc1)(c1ccccc1)c1ccccc1)N=Cc1ccccc1O` (stereo not drawn), which T/C (dose: 267.0 mg/kg/injection, schedule: Q01DX001 (ip), vehicle: saline) is on record?
Answer: 154 % of control

Question: And the T/C (dose: 600.0 mg/kg/injection, schedule: Q01DX001 (ip), vehicle: saline)?
Answer: 154 % of control

Question: For `CC1(C)N=C(N)N=C(N)N1c1cccc(OCCOc2ccc(NC(=O)CBr)cc2)c1`, which T/C (dose: 50.0 mg/kg/injection, schedule: Q01DX009 (ip), vehicle: saline) is on record?
Answer: 124 % of control

Question: And the T/C [1]?
Answer: 94 % of control

Question: And the T/C (dose: 100.0 mg/kg/injection, schedule: Q01DX009 (ip), vehicle: other)?
Answer: 172 % of control

Question: What about the T/C (dose: 150.0 mg/kg/injection, schedule: Q01DX009 (ip), vehicle: other) of the same compound?
Answer: 154 % of control

Question: And the T/C [2]?
Answer: 109 % of control

Question: And the T/C (dose: 200.0 mg/kg/injection, schedule: Q01DX009 (ip), vehicle: other)?
Answer: 100 % of control

Question: What about the T/C (dose: 200.0 mg/kg/injection, schedule: Q01DX009 (ip), vehicle: saline) of the same compound?
Answer: 97 % of control

Question: And the T/C [3]?
Answer: 112 % of control

Question: With `Cc1ccc(S(=O)(=O)F)cc1N` as the compound, how does the T/C (dose: 25.0 mg/kg/injection, schedule: Q01DX009 (ip), vehicle: carboxymethylcellulose (CMC)) read?
Answer: 95 % of control and 100 % of control

Question: What about the T/C (dose: 25.0 mg/kg/injection, schedule: Q04DX002 (ip), vehicle: carboxymethylcellulose (CMC)) of the same compound?
Answer: 100 % of control and 106 % of control

Question: What about the T/C (dose: 50.0 mg/kg/injection, schedule: Q01DX001 (ip), vehicle: carboxymethylcellulose (CMC)) of the same compound?
Answer: 104 % of control and 87 % of control

Question: What about the T/C (dose: 50.0 mg/kg/injection, schedule: Q01DX009 (ip), vehicle: carboxymethylcellulose (CMC)) of the same compound?
Answer: 103 % of control and 88 % of control

Question: What about the T/C (dose: 50.0 mg/kg/injection, schedule: Q04DX002 (ip), vehicle: carboxymethylcellulose (CMC)) of the same compound?
Answer: 93 % of control and 100 % of control

Question: And the T/C (dose: 50.0 mg/kg/injection, schedule: Q04DX003 (ip), vehicle: carboxymethylcellulose (CMC))?
Answer: 98 % of control and 90 % of control

Question: And the T/C (dose: 100.0 mg/kg/injection, schedule: Q01DX001 (ip), vehicle: carboxymethylcellulose (CMC))?
Answer: 101 % of control and 104 % of control

Question: And the T/C (dose: 100.0 mg/kg/injection, schedule: Q04DX002 (ip), vehicle: carboxymethylcellulose (CMC))?
Answer: 107 % of control and 90 % of control

Question: And the T/C (dose: 100.0 mg/kg/injection, schedule: Q04DX003 (ip), vehicle: carboxymethylcellulose (CMC))?
Answer: 94 % of control and 87 % of control

Question: What about the T/C (dose: 200.0 mg/kg/injection, schedule: Q01DX001 (ip), vehicle: carboxymethylcellulose (CMC)) of the same compound?
Answer: 106 % of control and 111 % of control

Question: And the T/C (dose: 200.0 mg/kg/injection, schedule: Q04DX003 (ip), vehicle: carboxymethylcellulose (CMC))?
Answer: 96 % of control and 87 % of control

Question: How did the T/C (dose: 10.0 mg/kg/injection, schedule: Q04DX003 (ip), vehicle: saline with Tween-80) turn out when `Cc1ccc(Cl)c(OCc2cc(=O)[nH]c(=O)[nH]2)c1` was run?
Answer: 101 % of control

Question: And the T/C (dose: 20.0 mg/kg/injection, schedule: Q04DX003 (ip), vehicle: saline with Tween-80)?
Answer: 92 % of control

Question: What about the T/C (dose: 40.0 mg/kg/injection, schedule: Q04DX003 (ip), vehicle: saline with Tween-80) of the same compound?
Answer: 95 % of control

Question: What does the source list for `CC(O)CC(C)(C)c1ccccc1` (stereo not drawn)?
Answer: T/C (dose: 50.0 mg/kg/injection, schedule: Q01DX009 (ip), vehicle: saline with Tween-80): 93 % of control; T/C (dose: 100.0 mg/kg/injection, schedule: Q01DX009 (ip), vehicle: saline with Tween-80): 93 % of control; T/C (dose: 200.0 mg/kg/injection, schedule: Q01DX009 (ip), vehicle: saline with Tween-80): 89 % of control

Question: With `Clc1cc(-c2ccccc2Br)nc2ccccc12` as the compound, how does the T/C [1] read?
Answer: 90 % of control

Question: What about the T/C [2] of the same compound?
Answer: 90 % of control

Question: What about the T/C [3] of the same compound?
Answer: 88 % of control

Question: `CC1=C(Cl)C(=O)C(Cl)=C(C)C1=O` was tested. Which T/C (dose: 5.5 mg/kg/injection, schedule: Q01DX Z (ip), vehicle: methylcellulose (MC)) did it give?
Answer: 93 % of control

Question: What about the T/C (dose: 8.3 mg/kg/injection, schedule: Q01DX Z (ip), vehicle: methylcellulose (MC)) of the same compound?
Answer: 107 % of control

Question: And the T/C (dose: 12.5 mg/kg/injection, schedule: Q01DX Z (ip), vehicle: methylcellulose (MC))?
Answer: 102 % of control

Question: Which T/C (dose: 3.13 mg/kg/injection, schedule: Q01DX009 (ip), vehicle: saline with Tween-80) does the source give for `Nc1nc(N)c2cc(NCc3ccc(F)cc3)ccc2n1` here?
Answer: 90 % of control

Question: What about the T/C (dose: 6.25 mg/kg/injection, schedule: Q01DX009 (ip), vehicle: saline with Tween-80) of the same compound?
Answer: 92 % of control

Question: What about the T/C (dose: 6.25 mg/kg/injection, schedule: Q04DX003 (ip), vehicle: saline with Tween-80) of the same compound?
Answer: 100 % of control

Question: What about the T/C (dose: 12.5 mg/kg/injection, schedule: Q01DX009 (ip), vehicle: saline with Tween-80) of the same compound?
Answer: 97 % of control

Question: What does the source list for `CC(C)[As](C)(=O)O`?
Answer: T/C (dose: 6.25 mg/kg/injection, schedule: Q04DX003 (ip), vehicle: Klucel (hydroxypropylcellulose) (HPC)): 101 % of control; T/C (dose: 12.5 mg/kg/injection, schedule: Q04DX003 (ip), vehicle: Klucel (hydroxypropylcellulose) (HPC)): 97 % of control; T/C (dose: 25.0 mg/kg/injection, schedule: Q04DX003 (ip), vehicle: Klucel (hydroxypropylcellulose) (HPC)): 102 % of control and 103 % of control

Reference: PubChem BioAssay AID248 (DTP/NCI, 2004)
